Laboratory results: patent US9868719B2, “Compounds with pesticidal activity” (BAYER CROPSCIENCE AKTIENGESELLSCHAFT, priority 2013, dated 2018)
Like-named read-outs stand apart in the source and are kept apart here.

How the values were obtained:
Haemonchus contortus = assay: Haemonchus contortus-Test (HAEMCO), larval mortality; settings: 120 h, read-out: activity (larval mortality)
Experimental: Haemonchus contortus-Test (HAEMCO)
(§1) Solvent: dimethyl sulfoxide
(§2) To produce a suitable preparation of active compound, 10 mg of active compound are dissolved in 0.5 ml solvent, and the concentrate is diluted with “Ringer's solution” to the desired concentration.
Approximately 40 larvae of the red stomach worm (Haemonchus contortus) are transferred into a test tube containing compound solution.
After 5 days percentage of larval mortality are recorded, 100% efficacy means all larvae are killed, 0% efficacy means no larvae are killed.

Cooperia curticei = assay: microbe, parasite or virus in culture; settings: 120 h, read-out: activity (larval mortality)
Experimental: Cooperia curticei-Test (COOPCU)
as §1, §2
Approximately 40 nematode larvae (Cooperia curticei) are transferred into a test tube containing the compound solution.
After 5 days percentage of larval mortality is recorded, 100% efficacy means all larvae are killed; 0% efficacy means no larvae are killed.

logP = settings: for chromatographic logP: HCOOH (formic acid)
Meloidogyne incognita = assay: Meloidogyne incognita-Test, gall formation on salad seedlings; format: in vivo; settings: 336 h, read-out: nematicidal activity (on the basis of gall formation)
Experimental: Meloidogyne incognita-Test
Solvent: 125.0 parts by weight of acetone
To produce a suitable preparation of active compound, 1 part by weight of active compound is mixed with the stated amount of solvent, and the concentrate is diluted with water to the desired concentration.
Vessels are filled with sand, a solution of the active ingredient, a suspension containing eggs and larvae of the southern root-knot nematode (Meloidogyne incognita) and salad seeds. The salad seeds germinate and the seedlings grow. Galls develop in the roots.
After 14 days the nematicidal activity is determined on the basis of the percentage of gall formation. 100% means no galls were found and 0% means the number of galls found on the roots of the treated plants was equal to that in untreated control plants.

[1] = tested on: Nippostrongylus brasiliensis; assay: Nippostrongylus brasiliensis-Test (NIPOBR), in vitro efficacy, acetylcholine esterase readout; settings: 10 μg/ml, read-out: activity (reduction of AChe compared to negative control)
Experimental: Nippostrongylus brasiliensis-Test (NIPOBR) (In Vitro Efficacy Test)
Adult Nippostrongylus brasiliensis were washed with saline buffer containing 100 U/ml penicillin, 0.1 mg/ml streptomycin and 2.5 μg/ml amphotericin B. Test compounds were dissolved in DMSO, and worms were incubated in medium in a final concentration of 10 μg/ml. An aliquot of the medium was used to determine the acetylcholine esterase activity in comparison to a negative control. The principle of measuring acetylcholine esterase as readout for anthelmintic activity was described in Rapson et al (1986) and Rapson et al (1987).

Structure (SMILES) | chromatographic logP (logP) | mortality at 20 ppm (Haemonchus contortus) [%] | mortality at 20 ppm (Cooperia curticei) [%] | further results
O=C(NCCc1ncc(-n2ccnc2)cc1Cl)c1ccccc1C(F)(F)F [Example 1] | 1.21 | – | – | mortality at 20 ppm (Haemonchus contortus; 20 ppm, after 5 days): 80%; mortality at 20 ppm (Cooperia curticei; 20 ppm, after 5 days): 100%
O=C(NCCc1ncc(-n2cc(C(F)(F)F)cn2)cc1Cl)c1ccccc1C(F)(F)F [Example 2] | – | 100 | 100 | pest or weed control at 20 ppm (Meloidogyne incognita): 1%; chromatographic logP (physchem): 3.65; inhibition at 10 µg/mL [1]: ≥ 60%
O=C(NCCc1ncc(-n2ccc(C(F)(F)F)n2)cc1Cl)c1ccccc1C(F)(F)F [Example 3] | – | 100 | 100 | pest or weed control at 20 ppm (Meloidogyne incognita): 1%; chromatographic logP (physchem): 3.68; inhibition at 10 µg/mL [1]: ≥ 60%
O=C(NCCc1ncc(-n2cccn2)cc1Cl)c1ccccc1C(F)(F)F [Example 4, N-{2-[3-chloro-5-(1H-pyrazol-1-yl)pyridin-2-yl]ethyl}-2-(trifluoromethyl)benzamide] | – | 100 | 100 | pest or weed control at 20 ppm (Meloidogyne incognita): 1%; chromatographic logP (physchem): 2.69; inhibition at 10 µg/mL [1]: ≥ 60%
O=C(NCCc1ncc(-n2cncn2)cc1Cl)c1ccccc1C(F)(F)F [Example 5] | 2.06 | 90 | – | pest or weed control at 20 ppm (Meloidogyne incognita; 20 ppm, after 14 days): 1%
O=C(NCCc1ncc(-c2ccc(Cl)nc2)cc1Cl)c1ccccc1C(F)(F)F [Example 6] | 3 | 100 | 100 | pest or weed control at 20 ppm (Meloidogyne incognita; 20 ppm, after 14 days): 1%
O=C(NCCc1ncc(-c2ccc(C(F)(F)F)nc2)cc1Cl)c1ccccc1C(F)(F)F [Example 7, N-{2-[5-chloro-6′-(trifluoromethyl)-3,3′-bipyridin-6-yl]ethyl}-2-(trifluoromethyl) benzamide] | 3.29 | 90 | 100 | pest or weed control at 20 ppm (Meloidogyne incognita; 20 ppm, after 14 days): 90%
O=C(NCC(F)(F)c1ncc(-c2ccoc2)cc1Cl)c1ccccc1C(F)(F)F [Example 8] | – | – | 100 | –
Cc1occc1-c1cnc(C(F)(F)CNC(=O)c2ccccc2C(F)(F)F)c(Cl)c1 [Example 9] | – | 90 | 100 | –
O=C(NCC(F)(F)c1ncc(-c2cncc(F)c2)cc1Cl)c1ccccc1C(F)(F)F [Example 10] | – | 100 | 100 | pest or weed control at 20 ppm (Meloidogyne incognita): 1%; chromatographic logP (physchem): 2.84; inhibition at 10 µg/mL [1]: ≥ 60%
O=C(NCC(F)(F)c1ncc(-c2ccc(C(F)(F)F)nc2)cc1Cl)c1ccccc1C(F)(F)F [Example 11, N-{2-[5-chloro-6′-(trifluoromethyl)-3,3′-bipyridin-6-yl]-2,2-difluoroethyl}-2-(trifluoromethyl) benzamide] | 3.42 | 90 | 100 | –
O=C(NCC(F)(F)c1ncc(-c2ccc(Cl)nc2)cc1Cl)c1ccccc1C(F)(F)F [Example 12] | 3.21 | 90 | 100 | pest or weed control at 20 ppm (Meloidogyne incognita; 20 ppm, after 14 days): 90%
Cc1ncccc1-c1cnc(C(F)(F)CNC(=O)c2ccccc2C(F)(F)F)c(Cl)c1 [Example 13] | 1.86 | – | – | pest or weed control at 20 ppm (Meloidogyne incognita; 20 ppm, after 14 days): 90%; mortality at 20 ppm (Cooperia curticei; 20 ppm, after 5 days): 90%
O=C(NCC(F)(F)c1ncc(-c2cccnc2Cl)cc1Cl)c1ccccc1C(F)(F)F [Example 14] | – | 100 | 100 | pest or weed control at 20 ppm (Meloidogyne incognita): 1%; chromatographic logP (physchem): 3; inhibition at 10 µg/mL [1]: ≥ 60%
O=C(NCC(F)(F)c1ncc(-c2cncc(Cl)c2)cc1Cl)c1ccccc1C(F)(F)F [Example 15] | – | 100 | 100 | pest or weed control at 20 ppm (Meloidogyne incognita): 90%; chromatographic logP (physchem): 3.17; inhibition at 10 µg/mL [1]: ≥ 60%
O=C(NCC(F)(F)c1ncc(-c2ccc(F)nc2)cc1Cl)c1ccccc1C(F)(F)F [Example 16] | – | 100 | 100 | pest or weed control at 20 ppm (Meloidogyne incognita): 1%; chromatographic logP (physchem): 3.02; inhibition at 10 µg/mL [1]: ≥ 60%
CC(C)Oc1ccc(-c2cnc(C(F)(F)CNC(=O)c3ccccc3C(F)(F)F)c(Cl)c2)cn1 [Example 17] | 4.15 | 90 | 100 | –
O=C(NCC(F)(F)c1ncc(-c2ccc(Cl)nc2Cl)cc1Cl)c1ccccc1C(F)(F)F [Example 18] | 3.68 | 80 | 100 | pest or weed control at 20 ppm (Meloidogyne incognita; 20 ppm, after 14 days): 1%
O=C(NCC(F)(F)c1ncc(-c2cccnc2)cc1Cl)c1ccccc1C(F)(F)F [Example 19] | – | 100 | 100 | chromatographic logP (physchem): 2.27; inhibition at 10 µg/mL [1]: ≥ 60%
O=C(NCC(F)(F)c1ncc(-c2ccc(OCC(F)(F)F)nc2)cc1Cl)c1ccccc1C(F)(F)F [Example 20] | 3.94 | 100 | 100 | pest or weed control at 20 ppm (Meloidogyne incognita; 20 ppm, after 14 days): 90%

Structure (SMILES) | chromatographic logP (logP) | mortality at 20 ppm (Haemonchus contortus) [%] | mortality at 20 ppm (Cooperia curticei) [%] | further results
O=C(NCC(F)(F)c1ncc(-c2cnccc2Cl)cc1Cl)c1ccccc1C(F)(F)F [Example 21] | 2.88 | – | 80 | –
O=C(NCC(F)(F)c1ncc(-c2ccncc2)cc1Cl)c1ccccc1C(F)(F)F [Example 22] | 2 | 90 | 100 | –
O=C(NCC(F)(F)c1ncc(-c2ccnc(F)c2)cc1Cl)c1ccccc1C(F)(F)F [Example 23] | 2.96 | 100 | 100 | pest or weed control at 20 ppm (Meloidogyne incognita; 20 ppm, after 14 days): 1%
O=C(NCC(F)(F)c1ncc(-c2ccnc(Cl)c2)cc1Cl)c1ccccc1C(F)(F)F [Example 24] | 3.17 | 100 | 100 | pest or weed control at 20 ppm (Meloidogyne incognita; 20 ppm, after 14 days): 1%
O=C(NCC(F)(F)c1ncc(-c2cc(Cl)nc(Cl)c2)cc1Cl)c1ccccc1C(F)(F)F [Example 25] | – | 100 | 100 | pest or weed control at 20 ppm (Meloidogyne incognita): 1%; chromatographic logP (physchem): 3.84; inhibition at 10 µg/mL [1]: ≥ 60%
O=C(NCC(F)(F)c1ncc(-n2cc(C(F)(F)F)cn2)cc1Cl)c1ccccc1C(F)(F)F [Example 28] | – | 100 | 100 | pest or weed control at 20 ppm (Meloidogyne incognita): 1%; inhibition at 10 µg/mL [1]: ≥ 60%
O=C(NCC(F)(F)c1ncc(-c2ccc(F)cn2)cc1Cl)c1cccnc1C(F)(F)F [Example 29] | 2.57 | – | – | pest or weed control at 20 ppm (Meloidogyne incognita; 20 ppm, after 14 days): 1%
O=C(NCC(F)(F)c1ncc(-c2ccc(F)cn2)cc1Cl)c1nccnc1C(F)(F)F [Example 30] | 2.75 | – | – | –
CC(F)(CNC(=O)c1ccccc1C(F)(F)F)c1ncc(-c2ccc(F)nc2)cc1Cl (centres unmarked) [Example 31] | 3.94 | – | – | –
CC(F)(CNC(=O)c1cccnc1C(F)(F)F)c1ncc(-c2ccc(F)nc2)cc1Cl (centres unmarked) [Example 32] | 2.66 | – | – | –
CC(F)(CNC(=O)c1ccccc1C(F)(F)F)c1ncc(-c2ccc(Cl)nc2)cc1Cl (centres unmarked) [Example 33] | 3.26 | – | – | –
CC(F)(CNC(=O)c1ccccc1C(F)(F)F)c1ncc(-c2ccc(C(F)(F)F)nc2)cc1Cl (centres unmarked) [Example 35] | – | – | – | logP (logP): 3.55
CC(F)(CNC(=O)c1cccnc1C(F)(F)F)c1ncc(-c2ccc(C(F)(F)F)nc2)cc1Cl (centres unmarked) [Example 36] | 3.17 | – | – | –
Cc1ccc(-c2cnc(C(C)(F)CNC(=O)c3ccccc3C(F)(F)F)c(Cl)c2)cn1 (centres unmarked) [Example 37] | 3.79 | – | – | –
Cc1ccc(-c2cnc(C(C)(F)CNC(=O)c3cccnc3C(F)(F)F)c(Cl)c2)cn1 (centres unmarked) [Example 38] | 1.69 | – | – | –
CC(F)(CNC(=O)c1ccccc1C(F)(F)F)c1ncc(-c2cncc(F)c2)cc1Cl (centres unmarked) [Example 39] | 2.99 | – | – | –
CC(F)(CNC(=O)c1cccnc1C(F)(F)F)c1ncc(-c2cncc(F)c2)cc1Cl (centres unmarked) [Example 40] | 2.49 | – | – | –
O=C(NCC(F)(F)c1ncc(-c2cc(F)c(F)cn2)cc1Cl)c1ccccc1C(F)(F)F [Example 41] | 3.28 | – | – | –
CN(C)c1ccc(-c2cnc(C(F)(F)CNC(=O)c3ccccc3C(F)(F)F)c(Cl)c2)cn1 [Example 42] | 1.97 | – | – | –
